Several values for one entry are separate records, joined by “and”; a condition that tells them apart may be missing. Identical values can stand only once. Inconclusive results and toxic doses are left out. Cut-off read from the data, not from the text of the source: active = T/C of 150% or more; inactive = T/C below 125%. Square brackets hold non-standard residues; d marks the D form. Peptide text beside a SMILES is read from it. * marks the point of attachment. ξ: configuration not given here. Pentanoyl = CCCCC(=O)*; ξP = O=C(O)C1CCCN1; OtBu = CC(C)(C)O*; CH2Cl = ClC*
Test system: L1210 leukemia ip in BDF1 mice, survival T/C
Test: NCI In Vivo Anticancer Drug Screen. Data for tumor model L1210 Leukemia (intraperitoneal) in B6D2F1 (BDF1) mice
Conditions: endpoint: mean survival time, higher = longer survival
In short: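 Transplanted-tumor mice were given test agent; controls received vehicle only. Survival readings from the two groups were divided (treated over control).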

[1] = dose: 100.0 mg/kg/injection, schedule: Q04DX003 (ip), vehicle: saline
[2] = dose: 200.0 mg/kg/injection, schedule: Q04DX003 (ip), vehicle: saline
[3] = dose: 100.0 mg/kg/injection, schedule: Q01DX001 (ip), vehicle: saline
[4] = dose: 200.0 mg/kg/injection, schedule: Q01DX001 (ip), vehicle: saline
[5] = dose: 400.0 mg/kg/injection, schedule: Q01DX001 (ip), vehicle: saline
[6] = dose: 100.0 mg/kg/injection, schedule: Q04DX003 (ip), vehicle: Klucel (hydroxypropylcellulose) (HPC)
[7] = dose: 200.0 mg/kg/injection, schedule: Q04DX003 (ip), vehicle: Klucel (hydroxypropylcellulose) (HPC)
[8] = dose: 400.0 mg/kg/injection, schedule: Q01DX009 (ip), vehicle: Klucel (hydroxypropylcellulose) (HPC)
[9] = dose: 400.0 mg/kg/injection, schedule: Q04DX003 (ip), vehicle: Klucel (hydroxypropylcellulose) (HPC)
[10] = dose: 75.0 mg/kg/injection, schedule: Q01DX001 (ip), vehicle: saline
[11] = dose: 150.0 mg/kg/injection, schedule: Q01DX001 (ip), vehicle: saline
[12] = dose: 100.0 mg/kg/injection, schedule: Q04DX003 (ip), vehicle: saline with Tween-80
[13] = dose: 200.0 mg/kg/injection, schedule: Q04DX003 (ip), vehicle: saline with Tween-80
[14] = dose: 400.0 mg/kg/injection, schedule: Q04DX003 (ip), vehicle: saline with Tween-80
[15] = dose: 100.0 mg/kg/injection, schedule: Q01DX001 (ip), vehicle: carboxymethylcellulose (CMC)
[16] = dose: 200.0 mg/kg/injection, schedule: Q01DX001 (ip), vehicle: carboxymethylcellulose (CMC)
[17] = dose: 400.0 mg/kg/injection, schedule: Q01DX001 (ip), vehicle: carboxymethylcellulose (CMC)
[18] = dose: 25.0 mg/kg/injection, schedule: Q04DX003 (ip), vehicle: saline
[19] = dose: 50.0 mg/kg/injection, schedule: Q04DX003 (ip), vehicle: saline
[20] = dose: 100.0 mg/kg/injection, schedule: Q04DX002 (ip), vehicle: Klucel (hydroxypropylcellulose) (HPC)
[21] = dose: 200.0 mg/kg/injection, schedule: Q04DX002 (ip), vehicle: Klucel (hydroxypropylcellulose) (HPC)
[22] = dose: 400.0 mg/kg/injection, schedule: Q04DX002 (ip), vehicle: Klucel (hydroxypropylcellulose) (HPC)

Measured: T/C

NC(Cc1ccc(N(CCCl)Cc2ccccc2)cc1)C(=O)O (stereo not drawn)
inactive: dose: 3.12 mg/kg/injection, schedule: Q01DX009 (ip), vehicle: distilled water + Tween-80 97 % of control | dose: 6.25 mg/kg/injection, schedule: Q01DX009 (ip), vehicle: distilled water + Tween-80 107 % of control | dose: 12.5 mg/kg/injection, schedule: Q01DX009 (ip), vehicle: distilled water + Tween-80 96 % of control | dose: 25.0 mg/kg/injection, schedule: Q01DX009 (ip), vehicle: distilled water + Tween-80 113 % of control | dose: 100.0 mg/kg/injection, schedule: Q01DX009 (ip), vehicle: distilled water + Tween-80 97 % of control

CC(C)NCCC#N
inactive: [1] 104 % of control | [2] 111 % of control | dose: 400.0 mg/kg/injection, schedule: Q04DX003 (ip), vehicle: saline 108 % of control

COc1ccccc1CN1CCCN(Cc2ccccc2OC)C1c1ccc(N(CCCl)CCCl)cc1C
inactive: [3] 88 % of control | dose: 100.0 mg/kg/injection, schedule: Q01DX009 (ip), vehicle: saline 98 % of control | [4] 88 % of control | dose: 200.0 mg/kg/injection, schedule: Q01DX009 (ip), vehicle: saline 95 % of control | [5] 87 % of control

CN=C(c1ccc(NC(=O)c2ccc(C(=O)Nc3ccc(C(=NC)N(C)Cc4ccccc4)cc3)cc2)cc1)N(C)Cc1ccccc1
inactive: dose: 1.88 mg/kg/injection, schedule: Q01DX Z (ip), vehicle: saline 104 % of control | dose: 3.75 mg/kg/injection, schedule: Q01DX Z (ip), vehicle: saline 98 % of control | dose: 7.5 mg/kg/injection, schedule: Q01DX Z (ip), vehicle: saline 97 % of control

C[N+]1=CN(c2ccc(Cl)cc2)Cc2cc(Cl)ccc21
inactive: dose: 100.0 mg/kg/injection, schedule: Q01DX009 (ip), vehicle: Klucel (hydroxypropylcellulose) (HPC) 95 % of control | [6] 105 % of control | dose: 200.0 mg/kg/injection, schedule: Q01DX009 (ip), vehicle: Klucel (hydroxypropylcellulose) (HPC) 106 % of control | [7] 91 % of control | [8] 107 % of control | [9] 93 % of control

COc1ccc2c(c1)C(C)(C)N(C)CC2
inactive: dose: 100.0 mg/kg/injection, schedule: Q04DX003 (ip), vehicle: acetone 104 % of control

CCCCC1(C(C)C)C(=O)NC(=O)N(C)C1=O (stereo not drawn)
inactive: [10] 100 % of control | [11] 105 % of control

CNC(=O)Oc1cccc(N(C)C)c1
inactive: dose: 9.5 mg/kg/injection, schedule: Q01DX001 (ip), vehicle: other 100 % of control | dose: 19.0 mg/kg/injection, schedule: Q01DX001 (ip), vehicle: other 98 % of control

COC(=O)Cc1ccccc1C(=O)OC
inactive: [12] 107 % of control | [13] 96 % of control | [14] 100 % of control

CCNC(=O)Nc1ccc(C)cc1
inactive: [15] 105 % of control | [16] 97 % of control | [17] 103 % of control

Cc1c(/C=C/[N+](=O)[O-])cc(C)c2c3c(oc12)CCCC3
inactive: dose: 50.0 mg/kg/injection, schedule: Q01DX001 (ip), vehicle: saline 98 % of control | [3] 93 % of control | [4] 102 % of control

Cc1cc(=O)n(-c2ccccc2)c2ccccc12
inactive: [3] 103 % of control | [4] 97 % of control | [5] 100 % of control

Cc1cc(Cc2cc(C)cc(C(C)(C)C)c2O)c(O)c(Cc2cc(C)cc(C(C)(C)C)c2O)c1
inactive: dose: 100.0 mg/kg/injection, schedule: Q01DX009 (ip), vehicle: gum acacia 97 % of control | dose: 100.0 mg/kg/injection, schedule: Q04DX003 (ip), vehicle: gum acacia 91 % of control | dose: 200.0 mg/kg/injection, schedule: Q01DX009 (ip), vehicle: gum acacia 96 % of control | dose: 200.0 mg/kg/injection, schedule: Q04DX003 (ip), vehicle: gum acacia 96 % of control | dose: 400.0 mg/kg/injection, schedule: Q01DX009 (ip), vehicle: gum acacia 94 % of control | dose: 400.0 mg/kg/injection, schedule: Q04DX003 (ip), vehicle: gum acacia 96 % of control

CCOC(=O)C1=C(C#N)C(C(=O)OCC)c2ncccc21 (stereo not drawn)
inactive: dose: 50.0 mg/kg/injection, schedule: Q01DX005 (ip), vehicle: saline 97 % of control | dose: 100.0 mg/kg/injection, schedule: Q01DX005 (ip), vehicle: saline 88 % of control | dose: 200.0 mg/kg/injection, schedule: Q01DX005 (ip), vehicle: saline 87 % of control | dose: 400.0 mg/kg/injection, schedule: Q01DX005 (ip), vehicle: saline 95 % of control

CCCCC[C@@H](CN(C)C)[C@H](O)/C=C/c1ccc(Cl)cc1
inactive: dose: 12.5 mg/kg/injection, schedule: Q01DX009 (ip), vehicle: saline 102 % of control | dose: 12.5 mg/kg/injection, schedule: Q04DX003 (ip), vehicle: saline 88 % of control | dose: 25.0 mg/kg/injection, schedule: Q01DX009 (ip), vehicle: saline 98 % of control | [18] 93 % of control | dose: 50.0 mg/kg/injection, schedule: Q01DX009 (ip), vehicle: saline 93 % of control and 97 % of control | [19] 93 % of control | [2] 102 % of control

Nc1nc(N)c(-c2ccc(Cl)cc2)c(C=O)n1
inactive: [15] 108 % of control | [16] 87 % of control | [17] 108 % of control

CC(=O)NC(CC(C)C)C(=O)NC(Cc1ccccc1)C(=O)CCl (stereo not drawn) (Ac-Leu-Phe-CH2Cl; configuration not given here)
inactive: [20] 94 % of control | [21] 98 % of control | [22] 102 % of control

O=C(Nc1c(Cl)c(Cl)c2c(c1Cl)Cc1cc(Cl)ccc1-2)C(Cl)Cl
inactive: [15] 101 % of control | [16] 101 % of control | [17] 106 % of control

CCCCC(=O)NCC(=O)N1CCCC1C(=O)OC(C)(C)C (stereo not drawn) (Pentanoyl-Gly-[ξP]-OtBu)
inactive: [20] 105 % of control | [21] 101 % of control | [22] 101 % of control

CN1CCC(SC(=O)C(O)(c2ccccc2)c2ccccc2)CC1
inactive: [10] 94 % of control | [11] 95 % of control

O=C1NC(=O)C(Cl)(c2ccccc2)C(=O)N1
inactive: [18] 99 % of control | [19] 87 % of control | [1] 96 % of control

c1ccc(N=C(Nc2ccccc2)c2ccccc2)cc1
inactive: [20] 103 % of control | [12] 94 % of control | [21] 111 % of control | [13] 91 % of control | [14] 92 % of control

Cc1ccc(C)c(NC(=O)c2ccc(Cl)c(Cl)c2)c1
inactive: dose: 1.5 mg/kg/injection, schedule: Q01DX009 (ip), vehicle: Klucel (hydroxypropylcellulose) (HPC) 92 % of control | dose: 3.0 mg/kg/injection, schedule: Q01DX009 (ip), vehicle: Klucel (hydroxypropylcellulose) (HPC) 99 % of control | dose: 6.0 mg/kg/injection, schedule: Q01DX009 (ip), vehicle: Klucel (hydroxypropylcellulose) (HPC) 97 % of control | dose: 6.25 mg/kg/injection, schedule: Q01DX009 (ip), vehicle: Klucel (hydroxypropylcellulose) (HPC) 88 % of control | dose: 50.0 mg/kg/injection, schedule: Q01DX009 (ip), vehicle: Klucel (hydroxypropylcellulose) (HPC) 86 % of control | [6] 93 % of control | [7] 91 % of control | [8] 86 % of control | [9] 90 % of control

CC(=O)Nc1cccc(-c2ccccc2Cl)c1
inactive: [3] 93 % of control | [4] 96 % of control | [5] 98 % of control

Nc1ncnc2nc(-c3ccc(Cl)cc3Cl)[nH]c12
inactive: dose: 6.25 mg/kg/injection, schedule: Q01DX001 (ip), vehicle: saline with Tween-80 101 % of control | dose: 12.5 mg/kg/injection, schedule: Q01DX001 (ip), vehicle: saline with Tween-80 106 % of control | dose: 25.0 mg/kg/injection, schedule: Q01DX001 (ip), vehicle: saline with Tween-80 98 % of control

Reference: PubChem BioAssay AID248 (DTP/NCI, 2004)
